Measurements reported in ChEMBL document CHEMBL4393664, “2,4-Disubstituted quinazolines targeting breast cancer cells via EGFR-PI3K” (Eur J Med Chem, 2019).
Calls of active or inactive are those of the source. The rule behind the calls is not given here.

What was measured:
MGC-803 = experiment: Cytotoxicity against human MGC803 cells assessed as reduction in cell viability after 72 hrs by MTT assay; type: functional, cell-based; conditions: MGC-803, 72 h
MCF7 [1] = experiment: Antiproliferative activity against human MCF7 cells assessed as reduction in cell viability up to 32 uM by MTT assay; type: functional, cell-based; conditions: TDE = time-dependent effect
MDA-MB-231 [2] = experiment: Antiproliferative activity against human MDA-MB-231 cells assessed as reduction in cell viability after 24 to 72 hrs by MTT assay; type: functional, cell-based
MDA-MB-231 [3] = experiment: Inhibition of colony formation in human MDA-MB-231 cells at 9 uM after 7 days by crystal violet staining based microscopic analysis; type: functional, cell-based
MDA-MB-231 [4] = experiment: Cell cycle arrest in human MDA-MB-231 cells assessed as accumulation at G2 phase at 3 uM after 24 hrs by propidium iodide/RNase A staining-based flow cytometric analysis (reference value: 27.76%); type: functional
MDA-MB-231 [5] = experiment: Cell cycle arrest in human MDA-MB-231 cells assessed as accumulation at G2 phase at 6 uM after 24 hrs by propidium iodide/RNase A staining-based flow cytometric analysis (reference value: 27.76%); type: functional
MDA-MB-231 [6] = experiment: Cell cycle arrest in human MDA-MB-231 cells assessed as accumulation at S phase at 6 uM after 24 hrs by propidium iodide/RNase A staining-based flow cytometric analysis (reference value: 23.07%); type: functional
MCF7 [7] = experiment: Cell cycle arrest in human MCF7 cells assessed as accumulation at G1 phase at 6 uM after 24 hrs by propidium iodide/RNase A staining-based flow cytometric analysis (reference value: 52.21%); type: functional
MCF7 [8] = experiment: Cell cycle arrest in human MCF7 cells assessed as accumulation at S phase at 6 uM after 24 hrs by propidium iodide/RNase A staining-based flow cytometric analysis (reference value: 17.17%); type: functional
MCF7 [9] = experiment: Cell cycle arrest in human MCF7 cells assessed as accumulation at G1 phase at 12 uM after 24 hrs by propidium iodide/RNase A staining-based flow cytometric analysis (reference value: 52.21%); type: functional
MCF7 [10] = experiment: Cell cycle arrest in human MCF7 cells assessed as accumulation at G2 phase at 12 uM after 24 hrs by propidium iodide/RNase A staining-based flow cytometric analysis (reference value: 30.62%); type: functional
MCF7 [11] = experiment: Cell cycle arrest in human MCF7 cells assessed as accumulation at S phase at 12 uM after 24 hrs by propidium iodide/RNase A staining-based flow cytometric analysis (reference value: 17.17%); type: functional
MDA-MB-231 [12] = experiment: Antimigratory activity against human MDA-MB-231 cells assessed as reduction in scratch healing after 72 hrs by microscopy based scratch wound assay; type: functional, cell-based
MCF7 [13] = experiment: Antimigratory activity against human MCF7 cells assessed as reduction in scratch healing after 72 hrs by microscopy based scratch wound assay; type: functional, cell-based
MDA-MB-231 [14] = experiment: Induction of apoptosis in human MDA-MB-231 cells assessed as early apoptotic cells at 4 uM after 48 hrs by Annexin-V-FITC/propidium iodide staining based flow cytometry (reference value: 4.33%); type: functional
MDA-MB-231 [15] = experiment: Induction of apoptosis in human MDA-MB-231 cells assessed as necrotic cells at 4 uM after 48 hrs by Annexin-V-FITC/propidium iodide staining based flow cytometry (reference value: 1.21%); type: functional
MDA-MB-231 [16] = experiment: Induction of apoptosis in human MDA-MB-231 cells assessed as viable cells at 6 uM after 48 hrs by Annexin-V-FITC/propidium iodide staining based flow cytometry (reference value: 92.1%); type: functional; conditions: MDA-MB-231, 48 h, read-out: Activity
MDA-MB-231 [17] = experiment: Induction of apoptosis in human MDA-MB-231 cells assessed as early apoptotic cells at 6 uM after 48 hrs by Annexin-V-FITC/propidium iodide staining based flow cytometry (reference value: 4.33%); type: functional
MDA-MB-231 [18] = experiment: Induction of apoptosis in human MDA-MB-231 cells assessed as late apoptotic cells at 6 uM after 48 hrs by Annexin-V-FITC/propidium iodide staining based flow cytometry (reference value: 2.38%); type: functional
MDA-MB-231 [19] = experiment: Induction of apoptosis in human MDA-MB-231 cells assessed as necrotic cells at 6 uM after 48 hrs by Annexin-V-FITC/propidium iodide staining based flow cytometry (reference value: 1.21%); type: functional
MCF7 [20] = experiment: Induction of apoptosis in human MCF7 cells assessed as viable cells at 2 uM after 48 hrs by Annexin-V-FITC/propidium iodide staining based flow cytometry (reference value: 91.1%); type: functional; conditions: MCF7, 48 h, read-out: Activity
MCF7 [21] = experiment: Induction of apoptosis in human MCF7 cells assessed as early apoptotic cells at 2 uM after 48 hrs by Annexin-V-FITC/propidium iodide staining based flow cytometry (reference value: 3.05%); type: functional
MCF7 [22] = experiment: Induction of apoptosis in human MCF7 cells assessed as late apoptotic cells at 2 uM after 48 hrs by Annexin-V-FITC/propidium iodide staining based flow cytometry (reference value: 4.28%); type: functional
MCF7 [23] = experiment: Induction of apoptosis in human MCF7 cells assessed as necrotic cells at 2 uM after 48 hrs by Annexin-V-FITC/propidium iodide staining based flow cytometry (reference value: 1.57%); type: functional
MCF7 [24] = experiment: Induction of apoptosis in human MCF7 cells assessed as early apoptotic cells at 4 uM after 48 hrs by Annexin-V-FITC/propidium iodide staining based flow cytometry (reference value: 3.05%); type: functional
MCF7 [25] = experiment: Induction of apoptosis in human MCF7 cells assessed as late apoptotic cells at 4uM after 48 hrs by Annexin-V-FITC/propidium iodide staining based flow cytometry (reference value: 4.28%); type: functional
MCF7 [26] = experiment: Induction of apoptosis in human MCF7 cells assessed as necrotic cells at 4 uM after 48 hrs by Annexin-V-FITC/propidium iodide staining based flow cytometry (reference value: 1.57%); type: functional
MCF7 [27] = experiment: Induction of apoptosis in human MCF7 cells assessed as viable cells at 6 uM after 48 hrs by Annexin-V-FITC/propidium iodide staining based flow cytometry (reference value: 91.1%); type: functional; conditions: MCF7, 48 h, read-out: Activity
MCF7 [28] = experiment: Induction of apoptosis in human MCF7 cells assessed as early apoptotic cells at 6 uM after 48 hrs by Annexin-V-FITC/propidium iodide staining based flow cytometry (reference value: 3.05%); type: functional
MCF7 [29] = experiment: Induction of apoptosis in human MCF7 cells after 48 hrs by Annexin-V-FITC/propidium iodide staining based flow cytometry; type: functional, cell-based
MCF7 [30] = experiment: Induction of apoptosis in human MCF7 cells assessed as increase in Bax expression levels at 3 to 12 uM after 48 hrs by Western blot analysis; type: functional, cell-based
MCF7 [31] = experiment: Induction of apoptosis in human MCF7 cells assessed as increase in P53 expression at 3 to 12 uM after 48 hrs by Western blot analysis; type: functional, cell-based
[32] = target: Epidermal growth factor receptor (Homo sapiens) (UniProt P00533); experiment: Inhibition of EGFR in human MDA-MB-231 cells assessed as reduction in phosphorylated AKT expression after 8 hrs by Western blot analysis; type: cell-based
MDA-MB-231 [33] = experiment: Effect on total EGFR protein level in human MDA-MB-231 cells up to 12 uM after 8 hrs by Western blot analysis; type: ADME, cell-based; conditions: mda-mb-231, 8 h
MDA-MB-231 [34] = experiment: Effect on total PI3K protein level in human MDA-MB-231 cells up to 12 uM after 8 hrs by Western blot analysis; type: ADME, cell-based; conditions: mda-mb-231, 8 h
[35] = target: Epidermal growth factor receptor (Homo sapiens) (UniProt P00533); experiment: Inhibition of EGFR phosphorylation at Y1068 residues in human MDA-MB-231 cells after 8 hrs by Western blot analysis; type: cell-based

Chain of Epidermal growth factor receptor (Homo sapiens) (P00533 whole entry): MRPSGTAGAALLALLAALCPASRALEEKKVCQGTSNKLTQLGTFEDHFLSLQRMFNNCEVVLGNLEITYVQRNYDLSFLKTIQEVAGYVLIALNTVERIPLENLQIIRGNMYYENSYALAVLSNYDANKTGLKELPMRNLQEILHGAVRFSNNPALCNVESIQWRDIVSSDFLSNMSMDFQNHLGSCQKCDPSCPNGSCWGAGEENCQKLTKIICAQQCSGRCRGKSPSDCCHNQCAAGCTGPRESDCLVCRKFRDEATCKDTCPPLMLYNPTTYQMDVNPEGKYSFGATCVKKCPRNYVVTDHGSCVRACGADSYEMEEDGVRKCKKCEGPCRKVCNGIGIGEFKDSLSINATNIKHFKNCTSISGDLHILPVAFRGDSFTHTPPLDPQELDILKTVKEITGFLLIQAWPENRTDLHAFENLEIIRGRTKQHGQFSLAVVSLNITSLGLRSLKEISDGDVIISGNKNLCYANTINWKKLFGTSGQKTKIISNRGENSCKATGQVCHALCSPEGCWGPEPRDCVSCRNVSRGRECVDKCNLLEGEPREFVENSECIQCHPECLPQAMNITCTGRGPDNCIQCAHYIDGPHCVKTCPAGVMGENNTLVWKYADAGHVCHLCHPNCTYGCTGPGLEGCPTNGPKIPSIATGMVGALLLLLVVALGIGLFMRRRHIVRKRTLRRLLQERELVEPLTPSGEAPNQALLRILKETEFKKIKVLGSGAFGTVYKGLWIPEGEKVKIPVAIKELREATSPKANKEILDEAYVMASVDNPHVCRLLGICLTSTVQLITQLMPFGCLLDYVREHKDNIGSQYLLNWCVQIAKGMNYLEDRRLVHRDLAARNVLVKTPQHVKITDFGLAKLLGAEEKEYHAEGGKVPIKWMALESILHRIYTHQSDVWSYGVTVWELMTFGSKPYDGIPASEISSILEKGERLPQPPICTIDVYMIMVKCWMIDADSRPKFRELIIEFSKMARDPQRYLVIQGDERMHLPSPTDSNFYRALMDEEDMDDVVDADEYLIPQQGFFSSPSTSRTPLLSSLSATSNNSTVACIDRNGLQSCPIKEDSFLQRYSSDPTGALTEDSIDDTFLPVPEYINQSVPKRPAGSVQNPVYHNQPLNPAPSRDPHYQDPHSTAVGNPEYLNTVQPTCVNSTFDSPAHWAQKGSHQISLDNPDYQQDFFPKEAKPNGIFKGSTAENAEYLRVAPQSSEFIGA

## FC(F)(F)c1ccc(CSc2nc(Nc3ccc(C(F)(F)F)cc3)c3ccccc3n2)cc1
MGC-803
  IC50: 6.17 µM
MCF7 [1]
  Activity: Tde
MDA-MB-231 [2]
  Activity: Dose-dependent effect
MDA-MB-231 [3]
  growth inhibition (GI): Active
MDA-MB-231 [4]
  Activity: 28.04%
MDA-MB-231 [5]
  Activity: 21.98%
MDA-MB-231 [6]
  Activity: 17.32%
MCF7 [7]
  Activity: 65.05%
MCF7 [8]
  Activity: 19.52%
MCF7 [9]
  Activity: 75.03%
MCF7 [10]
  Activity: 14.32%
MCF7 [11]
  Activity: 10.65%
MDA-MB-231 [12]
  Activity: Dose-dependent effect
MCF7 [13]
  Activity: Dose-dependent effect
MDA-MB-231 [14]
  Activity: 10.6%
MDA-MB-231 [15]
  Activity: 3.06%
MDA-MB-231 [16]
  viability at 6 µM: 66.5%
MDA-MB-231 [17]
  Activity: 10.4%
MDA-MB-231 [18]
  Activity: 20.7%
MDA-MB-231 [19]
  Activity: 2.49%
MCF7 [20]
  viability at 2 µM: 81.1%
MCF7 [21]
  Activity: 11.4%
MCF7 [22]
  Activity: 4.26%
MCF7 [23]
  Activity: 3.28%
MCF7 [24]
  Activity: 15%
MCF7 [25]
  Activity: 7.49%
MCF7 [26]
  Activity: 1.28%
MCF7 [27]
  viability at 6 µM: 70.5%
MCF7 [28]
  Activity: 17.1%
MCF7 [29]
  Activity: Dose-dependent effect
MCF7 [30]
  Activity: Active
MCF7 [31]
  Activity: Active
[32]
  inhibition: Dose-dependent effect
MDA-MB-231 [33]
  Activity: Non-Toxic
MDA-MB-231 [34]
  Activity: Non-Toxic
[35]
  inhibition: Dose-dependent effect
